One block for each substance: values may come before it. No end group written: not given here.
Key:
B55α interactors = assay: MS analysis of B55α WT, V228A, I284A, S287A and D340A immunopurifications; assay type: binding, human; conditions: log2 ratio of interactor abundance, 4 replicates each, normalised to bait B55α; for log2_ratio_D340_WT: B55α D340A vs WT immunopurification; for log2_ratio I284_WT: B55α I284A vs WT immunopurification; for log2_ratio S287_WT: B55α S287A vs WT immunopurification; for log2_ratio V228_WT: B55α V228A vs WT immunopurification
Experimental: Standard cloning techniques were used throughout. Point mutations were introduced by whole plasmid polymerase chain reaction (PCR). All constructs were fully sequenced. Synthetic DNA was purchased from GeneArt, Life Technologies and cloned into pcDNA5/FRT/TO (Invitrogen) expression vector containing YFP, resulting in the indicated YFP fusion proteins. These constructs were transiently transfected into HeLa cells 24 hours before harvesting cells. Cells were lysed in lysis buffer [50 mM tris-HCl (pH 7.5), 50 mM NaCl, 1 mM EDTA, 1 mM […], and 0.1% NP-40]. Complexes were immunoprecipitated at 4°C in lysis buffer with green fluorescent protein (GFP)–Trap (ChromoTek) and washed in lysis buffer. Precipitated protein complexes were washed three times in lysis buffer, eluted in 2× SDS sample buffer, and subjected to Western blotting or MS as indicated.
Pull-downs were analyzed on a Q-Exactive Plus quadrupole or Fusion Orbitrap Lumos mass spectrometer (Thermo Fisher Scientific) equipped with Easy-nLC 1000 or […] (Thermo Fisher Scientific) and nanospray source (Thermo Fisher Scientific).
Static modifications included carbamidomethylcysteine, and variable modifications included oxidized methionine and STY phosphorylation. Searches were filtered using orthogonal measures including mass measurement accuracy (±3 parts per million), Xcorr for charges from +2 to +4, and dCn targeting a <1% false discovery rate at the peptide level. Quantification of LC-MS/MS spectra was performed using MassChroQ ([57]) and the iBAQ method ([58]). All data were analyzed using R 4.3.0. Missing values were imputed from a normal distribution. […] In each dataset, the abundance of the protein of interest was normalized to be equal across all samples. Statistical analyses were done using a two-tailed Student’s t test.

PP2A-B55α = assay: Affinity purification of YFP-tagged designed peptides from HeLa cells, binding to PP2A-B55α by Western blot; parameters: species or system human; conditions: experimental binding of YFP-tagged designed peptide to PP2A-B55α
B55α = target: T1, B55α (Homo sapiens, UniProt P63151); assay: Surface plasmon resonance with captured Twin-Strep B55α; assay type: binding; conditions: same SPR approach as for B55i; fig. S15
T1 construct: His; made in house; host or cells: HEK293 cells
T1 sequence (P63151 1-447): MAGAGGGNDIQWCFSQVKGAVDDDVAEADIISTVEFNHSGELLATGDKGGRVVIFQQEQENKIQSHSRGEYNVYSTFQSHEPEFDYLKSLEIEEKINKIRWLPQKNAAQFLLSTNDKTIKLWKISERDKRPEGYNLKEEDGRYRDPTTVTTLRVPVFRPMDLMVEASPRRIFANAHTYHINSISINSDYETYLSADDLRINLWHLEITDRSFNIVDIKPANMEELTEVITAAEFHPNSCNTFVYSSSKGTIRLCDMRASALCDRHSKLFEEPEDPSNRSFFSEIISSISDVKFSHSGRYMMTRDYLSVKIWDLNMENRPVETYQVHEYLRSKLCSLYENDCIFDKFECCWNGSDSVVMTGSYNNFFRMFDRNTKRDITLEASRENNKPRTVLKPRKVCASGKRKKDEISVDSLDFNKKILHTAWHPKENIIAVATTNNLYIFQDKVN

Substance: BAG3_HUMAN
- log2_ratio_D340_WT (B55α interactors): 0.51
- log2_ratio I284_WT (B55α interactors): 0.79
- log2_ratio S287_WT (B55α interactors): 1.17
- log2_ratio V228_WT (B55α interactors): 0.37

Substance: DNJA2_HUMAN
- log2_ratio_D340_WT (B55α interactors): 1.00
- log2_ratio I284_WT (B55α interactors): 0.64
- log2_ratio S287_WT (B55α interactors): 1.02
- log2_ratio V228_WT (B55α interactors): 0.87

Substance: DNJB6_HUMAN
- log2_ratio_D340_WT (B55α interactors): -0.39
- log2_ratio I284_WT (B55α interactors): 0.42
- log2_ratio S287_WT (B55α interactors): 1.10
- log2_ratio V228_WT (B55α interactors): 2.13

Substance: EEKLRILEKMEEKLKDKSLSLEKKVLLKNAKKSL
- binding to PP2A-B55α (Western blot) (PP2A-B55α): 28

Substance: EKILEIAKKKIEELKKKPGGLDLEKYLLYKKLIEKV
- binding to PP2A-B55α (Western blot) (PP2A-B55α): 15

Substance: EKRKKLKEKALEKLKDPNRDLEEKVLLRNWLKSL
- binding to PP2A-B55α (Western blot) (PP2A-B55α): 14

Substance: ELIKRLYEKAKEKLKDESRSLEKKVLLRNWIKSL
- binding to PP2A-B55α (Western blot) (PP2A-B55α): 62.5

Substance: ELPLEEVERLLKLAEEKLKDESLSLTKKVLLRNL
- binding to PP2A-B55α (Western blot) (PP2A-B55α): 55.5

Substance: HAX1_HUMAN
- log2_ratio_D340_WT (B55α interactors): -0.10
- log2_ratio I284_WT (B55α interactors): -0.26
- log2_ratio S287_WT (B55α interactors): 0.0269
- log2_ratio V228_WT (B55α interactors): -0.50

Substance: HS90A_HUMAN
- log2_ratio_D340_WT (B55α interactors): -0.17
- log2_ratio I284_WT (B55α interactors): -0.24
- log2_ratio S287_WT (B55α interactors): 0.22
- log2_ratio V228_WT (B55α interactors): -0.28

Substance: HS90B_HUMAN
- log2_ratio_D340_WT (B55α interactors): -0.13
- log2_ratio I284_WT (B55α interactors): -0.16
- log2_ratio S287_WT (B55α interactors): 0.29
- log2_ratio V228_WT (B55α interactors): -0.12

Substance: HSPB1_HUMAN
- log2_ratio_D340_WT (B55α interactors): -1.28
- log2_ratio I284_WT (B55α interactors): -0.92
- log2_ratio S287_WT (B55α interactors): -0.85
- log2_ratio V228_WT (B55α interactors): -0.80

Substance: LLELAKKKYEEELKKKEPDLTKLVLLKNVIKKLK
- binding to PP2A-B55α (Western blot) (PP2A-B55α): 42

Substance: MQPINKARALYRISHLKLSNSKREQDEQVLLRLHMIAFLNIVNHT
- binding to PP2A-B55α (Western blot) (PP2A-B55α): 0

Substance: PVKLQLLKKAKEKLADENLSLEKKVLLKNLIKSW
- binding to PP2A-B55α (Western blot) (PP2A-B55α): 68

- binding to B55α, affinity range (B55α): low micromolar
Substance: QIIQRSFSSPENFQRQAVMNSALRQMSYGGW [RBM7 129–158 WT]

Substance: QRLMTLSVWKMYHSRMQRGGEDAWLSLMLSLAMRLG
- binding to PP2A-B55α (Western blot) (PP2A-B55α): 0

Substance: RLPINLERALYRLSHLKLSNSKRELYEQVALKLAMLGFLNLVNHT
- binding to PP2A-B55α (Western blot) (PP2A-B55α): 11.5

Substance: SLIWQSNMDKALVKLQLCHMLEQPDLTKSVMILAGVLAAQEFM
- binding to PP2A-B55α (Western blot) (PP2A-B55α): 0

From paper PMC11446282
